Data reported in patent publication US20170362228A1, “TETRAHYDRO-PYRIDO[3,4-b]INDOLE ESTROGEN RECEPTOR MODULATORS AND USES THEREOF” (Genentech, Inc., priority 2016, published 2017).
Read-outs that look alike come from different tables or passages of the source.

Columns and labels:
[1] = biological target: T1, estrogen receptor alpha (ESR1) (Homo sapiens, UniProt P03372); assay: Breast Cancer Cell ERa High Content Fluorescence Imaging Degradation Assay (Example 901); type: cell-based; conditions: MCF7 breast cancer cells, 4 hours, plateau of the maximal effect
T1 construct: endogenous in cells; host or cells: MCF7 breast cancer cells
T1 sequence (P03372 1-595): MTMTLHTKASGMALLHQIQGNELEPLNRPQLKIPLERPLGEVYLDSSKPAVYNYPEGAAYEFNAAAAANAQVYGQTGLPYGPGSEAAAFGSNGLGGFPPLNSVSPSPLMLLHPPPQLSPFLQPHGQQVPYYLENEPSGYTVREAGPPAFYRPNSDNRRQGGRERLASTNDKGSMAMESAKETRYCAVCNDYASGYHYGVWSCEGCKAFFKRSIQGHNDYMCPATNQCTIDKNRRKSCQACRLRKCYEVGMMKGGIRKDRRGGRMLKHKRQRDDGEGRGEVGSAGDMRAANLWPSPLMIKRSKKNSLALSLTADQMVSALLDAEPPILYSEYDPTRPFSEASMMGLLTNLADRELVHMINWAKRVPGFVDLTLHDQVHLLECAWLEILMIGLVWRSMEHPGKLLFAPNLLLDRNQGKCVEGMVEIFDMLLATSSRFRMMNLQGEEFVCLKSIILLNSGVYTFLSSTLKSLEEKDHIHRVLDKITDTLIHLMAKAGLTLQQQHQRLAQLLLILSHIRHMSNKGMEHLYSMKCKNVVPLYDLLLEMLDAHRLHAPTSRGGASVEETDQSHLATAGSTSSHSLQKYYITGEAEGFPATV
Protocol: MCF7 breast cancer cells were seeded on day 1 at a density of 10,000 cells per well in 384 well poly-lysine coated tissue culture plate (Greiner # T-3101-4), in 50 μL/well RPMI (phenol red free), 10% FBS (Charcoal stripped), containing L-glutamine. On day 2, compounds were prepared at 2 compound source concentrations: 100 μM and 1 μM (ultimately to give 2 overlapping titration curves), in a Labcyte low dead volume plate, 10 μL/well, and 10 μL of DMSO in designated wells for backfill, and 5 μM Fulvestrant (control compound) in designated wells. Compounds and controls were dispensed using a Labcyte Echo acoustic dispenser to dispense compounds with a predefined serial dilution (1.8×, 10 point, in duplicate) and appropriate backfill and control compounds (final total volume transferred was 417.5 nL and compound dispense volume ranges from 2.5 nL to 417.5 nL; 0.84% DMSO (v/v) final), ultimately producing a concentration range from 0.05 nM to 835 nM. Cell plates were incubated at 37° C., for 4 hours. Fixation and permeabilization were carried out using a Biotek EL406 plate washer and dispenser as follows. Cells were fixed by addition of 15 μL of 16% paraformaldehyde (Electron Microscopy Sciences #15710-S) directly to the 50 μL cell culture medium in each well using the peristaltic pump 5 μL cassette on a Biotek EL406 (final concentration of formaldehyde was 3.7% w/v). Samples were incubated 30 minutes. Well contents was aspirated and 50 μL/well of Phosphate Buffered Saline (PBS) containing 0.5% w/v bovine serum albumen, 0.5% v/v Triton X-100 (Antibody Dilution Buffer) was added to each well. Samples were incubated for 30 minutes. Well contents were aspirated and washed 3 times with 100 μL/well of PBS. Immunofluorescence staining of estrogen receptor alpha (ESR1) was carried out using a Biotek EL406 plate washer and dispenser as follows. The well supernatant was aspirated from the wells and 25 μL/well of anti-ESR1 mAb (F10) (Santa Cruz sc-8002) diluted 1:1000 in Antibody Dilution Buffer was dispensed. Samples were incubated for 2 hours at room temperature. Samples were washed 4 times with 100 μL/well of PBS. 25 uL/well of secondary antibody solution (Alexafluor 488 conjugate anti-mouse IgG (LifeTechnologies #A21202) diluted 1:1000 and Hoechst 33342 1 μg/ml diluted in Antibody Dilution Buffer) were dispensed into each well. Samples were incubated for 2 hours at room temperature. Samples were washed 3 times with 100 μL/well of PBS using a Biotek EL406. Quantitative fluorescence imaging of ESR1 was carried out using a Cellomics Arrayscan V (Thermo). Fluorescence images of the samples (Channel 1: XF53 Hoechst (DNA stain); Channel 2: XF53 FITC (ESR1 stain)) were acquired using a Cellomics VTI Arrayscan using the Bioapplication “Compartmental Analysis” using the auto-exposure (based on DMSO control wells) setting “peak target percentile” set to 25% target saturation for both channels. Channel 1 (DNA stain) was used to define the nuclear region (Circ). Measurements of “Mean_CircAvgIntCh2”, which is the Alexafluor 488 fluorescence intensity (ESR1) within the nuclear region, was measured on a per cell basis and averaged over all the measured cells. Data analysis was carried out using Genedata Screener Software, with DMSO and 5 nM Fulvestrant treated samples being used to define the 0% and 100% changes in ESR1. The “Robust Fit” method was used to define the inflexion point of curve (EC50) and the plateau of the maximal effect (Sinf). Degradation data for exemplary Formula I compounds is reported as ER-alpha MCF7 HCS Sinf(%) values in Table 1.

MCF7 cells = assay: In vitro cell proliferation assays (Examples 902 and 903), MCF7; type: cell-based; conditions: read-out: ER-alpha MCF7 HCS (EC50)
Protocol: Efficacy of estrogen receptor modulator compounds and chemotherapeutic compounds are measured by a cell proliferation assay employing the following protocol (Mendoza et al (2002) Cancer Res. 62:5485-5488).
The CellTiter-Glo® Luminescent Cell Viability Assay is a homogeneous method to determine the number of viable cells in culture based on quantitation of the ATP present, which signals the presence of metabolically active cells. The CellTiter-Glo® Assay is designed for use with multiwell plate formats, making it ideal for automated high-throughput screening (HTS), cell proliferation and cytotoxicity assays. The homogeneous assay procedure involves adding a single reagent (CellTiter-Glo® Reagent) directly to cells cultured in serum-supplemented medium. Cell washing, removal of medium or multiple pipetting steps are not required. The Cell Titer-Glo® Luminescent Cell Viability Assay, including reagents and protocol are commercially available (Promega Corp., Madison, Wis., Technical Bulletin TB288).
The assay assesses the ability of compounds to enter cells and inhibit cell proliferation. The assay principle is based on the determination of the number of viable cells present by quantitating the ATP present in a homogenous assay where addition of the Cell TiterGlo® reagent results in cell lysis and generation of a luminescent signal through the luciferase reaction. The luminescent signal is proportional to the amount of ATP present.
Procedure: Day 1—Seed Cell Plates (384-well black, clear bottom, microclear, TC plates with lid from Falcon #353962), Harvest cells, Seed cells at 1000 cells per 54 μl per well into 384 well Cell Plates for 3 days assay. Cell Culture Medium: RPMI or DMEM high glucose, 10% Fetal Bovine Serum, 2 mM L-Glutamine, P/S. Incubate 0/N (overnight) at 37° C., 5% CO2.
Day 2—Add Drug to Cells, Compound Dilution, DMSO Plates (serial 1:2 for 9 points). Add 20 μl of compound at 10 mM in the 2nd column of 96 well plate. Perform serial 1:2 across the plate (10 μl+20 μl 100% DMSO) for a total of 9 points using Precision Media Plates 96-well conical bottom polypropylene plates from Nunc (cat.#249946) (1:50 dilution). Add 147 μl of Media into all wells. Transfer 3 μl of DMSO+compound from each well in the DMSO Plate to each corresponding well on Media Plate using Rapidplate® (Caliper, a Perkin-Elmer Co.). For 2 drug combination studies, transfer one drug 1.5 μl of DMSO+compound from each well in the DMSO Plate to each corresponding well on Media Plate using Rapidplate. Then, transfer another drug 1.5 μl to the medium plate.
Drug Addition to Cells, Cell Plate (1:10 dilution): Add 6 μl of media+compound directly to cells (54 μl of media on the cells already). Incubate 3 days at 37° C., 5% CO2 in an incubator that will not be opened often.
Day 5—Develop Plates, Thaw Cell Titer Glo Buffer at room temperature: Remove Cell Plates from 37° C. and equilibrate to room temperature for about 30 minutes. Add Cell Titer-Glo® Buffer to Cell Titer-Glo® Substrate (bottle to bottle). Add 30 μl Cell Titer-Glo® Reagent (Promega cat.# G7572) to each well of cells. Place on plate shaker for about 30 minutes. Read luminescence on Analyst HT Plate Reader (half second per well).
Cell viability assays and combination assays: Cells were seeded at 1000-2000 cells/well in 384-well plates for 16 h. On day two, nine serial 1:2 compound dilutions were made in DMSO in a 96 well plate. The compounds were further diluted into growth media using a Rapidplate® robot (Zymark Corp., Hopkinton, Mass.). The diluted compounds were then added to quadruplicate wells in 384-well cell plates and incubated at 37° C. and 5% CO2. After 4 days, relative numbers of viable cells were measured by luminescence using Cell Titer-Glo® (Promega) according to the manufacturer's instructions and read on a Wallac Multilabel Reader® (PerkinElmer, Foster City). EC50 values were calculated using Prism® 4.0 software (GraphPad, San Diego). […]

[2] = Table 1a, DMSO and Fulvestrant define 0% and 100% changes in ESR1

| Structure (SMILES) | ER-alpha MCF7 HCS (S inf) [1, 2] | EC50 (MCF7 cells; Homo sapiens, MCF7, Table 1a) | ER-alpha MCF7 HCS (S inf) ([1]; Table 1b) | EC50 (MCF7 cells; Homo sapiens, MCF7, Table 1b) | EC50 (MCF7 cells; Table 1b) |
| --- | --- | --- | --- | --- | --- |
| C[C@@H]1Cc2c([nH]c3c(F)cccc23)[C@@H](c2c(F)cc([C@H](O)C3CN(CCCF)C3)cc2F)N1CC(F)(F)CO (single isomer, unassigned) [Compound 133] | −95.88% | 0.083 nM | – | – | – |
| C[C@@H]1Cc2c([nH]c3c(F)cccc23)[C@@H](c2c(F)cc([C@@H](O)C3CN(CCCF)C3)cc2F)N1CC(F)(F)CO (single isomer, unassigned) [Compound 134] | −94.44% | 0.137 nM | – | – | – |
| C[C@@H]1Cc2c([nH]c3ccccc23)[C@@H](c2c(F)cc([C@@H](O)C3CN(CCCF)C3)cc2F)N1CC(F)(F)CO (single isomer, unassigned) [Compound 135] | −99.46% | 0.039 nM | – | – | – |
| C[C@@H]1Cc2c([nH]c3ccccc23)[C@@H](c2c(F)cc([C@H](O)C3CN(CCCF)C3)cc2F)N1CC(F)(F)CO (single isomer, unassigned) [Compound 136] | −99.81% | 0.066 nM | – | – | – |
| C[C@@H]1Cc2c([nH]c3ccccc23)[C@@H](c2c(F)cc([C@H](O)C3CN(CCCF)C3)cc2F)N1C[C@@H](F)CO (single isomer, unassigned) [Compound 137] | −100.96% | 0.074 nM | – | – | – |
| C[C@@H]1Cc2c([nH]c3ccccc23)[C@@H](c2c(F)cc([C@@H](O)C3CN(CCCF)C3)cc2F)N1C[C@@H](F)CO (single isomer, unassigned) [Compound 138] | −97.67% | 0.276 nM | – | – | – |
| C[C@@H]1Cc2c([nH]c3ccccc23)[C@@H](c2c(F)cc([C@H](O)C3CN(CCCF)C3)cc2F)N1C[C@H](F)CO (single isomer, unassigned) [Compound 140] | −95.81% | 0.989 nM | – | – | – |
| C[C@@H]1Cc2c([nH]c3cc(F)ccc23)[C@@H](c2c(F)cc([C@H](O)C3CN(CCCF)C3)cc2F)N1CC(F)(F)CO (single isomer, unassigned) [Compound 142] | −100% | 0.065 nM | – | – | – |
| C[C@@H]1Cc2c([nH]c3ccccc23)[C@@H](c2c(F)cc([C@H](F)C3CN(CCCF)C3)cc2F)N1C[C@@H](F)CO (single isomer, unassigned) [Compound 156] | – | – | −102% | 0.055 nM | – |
| C[C@@H]1Cc2c([nH]c3ccccc23)[C@@H](c2c(F)cc([C@@H](F)C3CN(CCCF)C3)cc2F)N1C[C@@H](F)CO (single isomer, unassigned) [Compound 157] | – | – | −100% | 0.078 nM | – |
| C[C@@H]1Cc2c([nH]c3ccccc23)[C@@H](c2c(F)cc([C@@H](O)C3CN(CCCF)C3)cc2F)N1CC(F)CF (stereo in doubt) [Compound 160, (S)-(4-((1R,3R)-2-((R)-2,3-difluoropropyl)-3-methyl-2,3,4,9-tetrahydro-1H-pyrido[3,4-b]indol-1-yl)-3,5-difluorophenyl)(1-(3-fluoropropyl)azetidin-3-yl)methanol] | – | – | −101% | – | 0.032 nM |
| C[C@@H]1Cc2c([nH]c3ccccc23)[C@@H](c2c(F)cc([C@H](F)C3CN(CCCF)C3)cc2F)N1CC(C)(C)F [Compound 103, (1R,3R)-1-(2,6-difluoro-4-((R)-fluoro(1-(3-fluoropropyl)azetidin-3-yl)methyl)phenyl)-2-(2-fluoro-2-methylpropyl)-3-methyl-2,3,4,9-tetrahydro-1H-pyrido[3,4-b]indole] | −94.25% | 0.12 nM | – | – | – |
| C[C@@H]1Cc2c([nH]c3ccccc23)[C@@H](c2c(F)cc(C(O)C3CN(CCCF)C3)cc2F)N1CC(F)(F)CO (stereo partly drawn) [Compound 106, 3-((1R,3R)-1-(2,6-difluoro-4-((1-(3-fluoropropyl)azetidin-3-yl)(hydroxy)methyl)phenyl)-3-methyl-1,3,4,9-tetrahydro-2H-pyrido[3,4-b]indol-2-yl)-2,2-difluoropropan-1-ol] | −98.3% | 0.035 nM | – | – | – |
